Each block holds one compound with its values, some of them ahead of it. The source made the active and inactive calls.
How the values were obtained:
[1] = target: T1, Oxysterols receptor LXR-beta (Homo sapiens, UniProt P55055); format: functional, cell-based;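 further: agonist activity at LXR measured by a cell-based luminescence readout across a dose range, run as a counterscreen for daf-12 agonists; HEK293 cells with Gal4-LXR fusion and GAL4-driven luciferase reporter; potency for activation of Gal4-LXR reporter so compounds are agonists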
T1 sequence (P55055 whole entry): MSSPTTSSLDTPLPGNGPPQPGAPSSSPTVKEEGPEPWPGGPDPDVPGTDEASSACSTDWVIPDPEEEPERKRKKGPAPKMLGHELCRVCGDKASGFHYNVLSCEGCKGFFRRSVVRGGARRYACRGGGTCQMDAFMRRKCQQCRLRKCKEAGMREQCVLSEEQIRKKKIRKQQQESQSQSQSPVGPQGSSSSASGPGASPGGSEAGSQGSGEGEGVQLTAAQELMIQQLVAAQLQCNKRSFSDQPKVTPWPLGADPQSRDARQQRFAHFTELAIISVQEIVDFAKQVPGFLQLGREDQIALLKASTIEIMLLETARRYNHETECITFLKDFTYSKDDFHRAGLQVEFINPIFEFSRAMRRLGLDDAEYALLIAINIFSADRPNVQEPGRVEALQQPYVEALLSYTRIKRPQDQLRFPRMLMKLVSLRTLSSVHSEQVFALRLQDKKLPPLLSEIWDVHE

[2] = cytotoxicity in A549 cells, dose response, cytotoxicity control, cell-based, CellTiter-Glo luminescence, cherry-pick (AID 743484); format: functional
[3] = Vero cell cytotoxicity, dose response, cytotoxicity control for Vif-APOBEC3G degradation inhibitor project, Vero cells (AID 1117358); format: functional; details: Human immunodeficiency virus 1, Vero
Transthyretin = Transthyretin (Homo sapiens, UniProt P02766); experiment: Luminescence-based cell-based high throughput dose response assay to identify activators of Transthyretin (TTR) transcription.; format: functional
[4] = target: E3 ubiquitin-protein ligase UHRF1 (Homo sapiens, UniProt Q96T88); experiment: Counterscreen for inhibitors of 5-meCpG-binding domain protein 2 (MBD2): TRFRET-based biochemical high throughput dose response assay to identify inhibitors of binding of ubiquitin-like with PHD and ring finger domains 1 (UHRF1) to methylated oligonucleotide.
[5] = Luminescence Cell-Based Dose Retest to Confirm Inhibitors of Cancer Stem Cells. [Related pubchem assays (depositor defined):AID2717, AID2721]; format: functional; details: Homo sapiens
CAAX prenyl protease 2 = CAAX prenyl protease 2 (Saccharomyces cerevisiae S288c, UniProt Q03530); format: biochemical
[6] = HepG2 cell cytotoxicity, dose response, cytotoxicity control, ATP luminescence, cherry-pick, set 6 (AID 1053125); format: functional, cell-based
cells [7] = details: A549
cells [8] = details: HEK293
Paired box protein Pax-8 = Paired box protein Pax-8 (Homo sapiens, UniProt Q06710); experiment: inhibitors of PAX8-driven TPO luciferase reporter, dose response, RMG-I cells, cherry-pick (AID 687027); format: functional, cell-based;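 further: luciferase reporter driven by Pax8 target thyroperoxidase promoter measured by SteadyGlo luminescence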
[9] = inhibitors of PGC1a acetylation in cells, dose response, cell-based, cherry-picked samples (AID 720514); format: functional;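 further: potency may reflect raised or lowered acetylation signal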
[10] = P. falciparum Dd2 growth inhibitors, dose response, SYBR Green, cherry-picked samples (AID 1159567); format: functional, cell-based
[11] = HepG2 cell cytotoxicity, dose response, cytotoxicity control, cherry-picked samples (AID 1159577); format: functional, cell-based
[12] = cytotoxicity in OVCAR8 ovarian cancer cells, dose response, PAX8 project, cell-based, plate reader, dry powder samples (AID 743197); format: functional; details: OVCAR-8
[13] = target: Metabotropic glutamate receptor 5 (Rattus norvegicus, UniProt P31424); experiment: Identification of a glycine sulfonamide based non-MPEP site positive allosteric potentiator (PAM) of mGlu5 (calcium_assay).; format: functional
[14] = target: Muscarinic acetylcholine receptor M5 (Homo sapiens, UniProt P08912); experiment: M5 receptor positive allosteric modulators, dose response, cell-based, concentration-response curve (AID 651878); format: functional
[15] = Late stage assay provider results from the probe development effort to identify selective inhibitors of heat shock protein 90 (HSP90): Absorbance-based cell proliferation assay in SKBR3 cells.; format: functional; details: SK-BR-3
[16] = Late stage assay provider results from the probe development effort to identify selective inhibitors of heat shock protein 90 (HSP90): Absorbance-based cell proliferation assay in MCF7 cells.; format: functional
[17] = Late-stage results from the probe development effort to identify antagonists of arginine vasopressin receptor 1a (AVPR1a): fluorescence-based cell-based dose response AVPR1a inhibition assay.; format: functional
Vasopressin V1b receptor = Vasopressin V1b receptor (Homo sapiens, UniProt P47901); experiment: Late-stage results from the probe development effort to identify antagonists of arginine vasopressin receptor 1a (AVPR1a): fluorescence-based cell-based dose response AVPR1b inhibition counterscreen assay.; format: functional
Vasopressin V2 receptor = Vasopressin V2 receptor (Homo sapiens, UniProt P30518); experiment: Late-stage results from the probe development effort to identify antagonists of arginine vasopressin receptor 1a (AVPR1a): fluorescence-based cell-based dose response AVPR2 inhibition counterscreen assay.; format: functional
[18] = Late-stage results from the probe development effort to identify antagonists of arginine vasopressin receptor 1a (AVPR1a): fluorescence-based cell-based dose response OXTR inhibition counterscreen assay.; format: functional
[19] = target: NAD-dependent protein deacylase sirtuin-5, mitochondrial (Homo sapiens, UniProt Q9NXA8); experiment: SIRT5 deacylase inhibitors, dose response, biochemical, fluorescence imaging, cherry-pick, set 6 (AID 720597)
[20] = A375 melanoma cell viability loss, dose response, counter-screen for MITF inhibitor project, CellTiter-Glo luminescence, dry powder, set 4 (AID 624364); format: functional, cell-based; details: A-375;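 further: A375 melanoma cells are MITF independent so this is a counter screen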
[21] = A375 melanoma cell cytotoxicity, dose response, counter-screen for MITF inhibitor project, CellTiter-Glo luminescence, dry powder, set 2 (AID 624489); format: functional, cell-based; details: A-375;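 further: actives are compounds lowering A375 viability meaning general cytotoxicity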
[22] = P. falciparum 3D7-ScDHODH growth inhibitors, dose response, SYBR Green, dry powder samples (AID 1159570); format: functional, cell-based;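 further: parasite growth measured after 72 hours of compound exposure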
[23] = HepG2 cell cytotoxicity, dose response, cytotoxicity control, plate reader, dry powder samples (AID 1159569); format: functional, cell-based;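 further: inhibitor potency with signal falling toward the positive control level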
[24] = P. falciparum Dd2 growth inhibitors, dose response, SYBR Green, dry powder samples (AID 1159566); format: functional, cell-based;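 further: potency for growth inhibition with lower SYBR green DNA signal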
[25] = Plasmodium falciparum Dd2 Sybr green parasite growth Measured in Cell-Based and Microorganism Combination System Using Plate Reader - 2153-01_Inhibitor_Dose_DryPowder_Activity_Set3.; format: functional
[26] = P. falciparum ATP4 D1247Y mutant growth inhibitors, dose response, NITD609-resistant line, SYBR Green, dry powder (AID 1159571); format: functional, cell-based;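 further: parasites synchronized at ring stage by sorbitol before testing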
cells [27] = format: functional, cell-based
cells [28] = format: functional, cell-based; remark: listed apart in the source
[29] = HepG2 cell cytotoxicity, dose response, cytotoxicity control, ATP luminescence, cherry-pick, activator set 2 (AID 1053143); format: functional, cell-based
[30] = HeLa 2N DNA content increase, dose response, cell-based, IC50 (AID 1117349); format: functional
[31] = Concentration-dependent survival of SW480 colon cancer line, luminescence detection with CellTiter-Glo, half-maximal inhibitory concentration (AID 1117338); format: functional
[32] = Dose-response inhibition of insulin secretion in a rat insulinoma line at 5 mM glucose (AID 1117331); format: functional, cell-based; details: INS-1E
[33] = RKO cell viability reduction, dose response, CellTiter-Glo luminescence (AID 1117322); format: functional
[34] = cytotoxicity toward HCT116 cells – cell-based, CellTiter-Glo luminescence, IC50, dose response (AID 1117332); format: functional; details: HCT-116
[35] = SNU-C1 cell viability reduction, dose response, CellTiter-Glo luminescence (AID 1117323); format: functional, cell-based
cells [36] = format: functional, cell-based; details: INS-1E
[37] = cytotoxicity toward Colo320 cells – cell-based, CellTiter-Glo luminescence, IC50, dose response (AID 1117334); format: functional; details: COLO 320
[38] = HeLa 4N DNA content increase, dose response, cell-based, IC50 (AID 1117351); format: functional
[39] = CellTiter-Glo luminescent dose response of DLD-1 viability loss (AID 1117352); format: functional
[40] = half-maximal inhibitory concentration for glucagon-like peptide-1 release, STC-1 cell line, dose-response (AID 1117345); format: functional, cell-based
[41] = Glucagon-like peptide 1 release potency, NCI-H716 cell line, dose-response, half-maximal inhibitory concentration (AID 1117344); format: functional, cell-based
[42] = cytotoxicity toward HT-29 cells – cell-based, CellTiter-Glo luminescence, IC50, dose response (AID 1117330); format: functional
[43] = HCT116 cell viability decrease, GSK3B pretreatment – CellTiter-Glo, IC50, dose response (AID 1117339); format: functional; details: HCT-116

Paired box protein Pax-8, sequence (Q06710 whole entry): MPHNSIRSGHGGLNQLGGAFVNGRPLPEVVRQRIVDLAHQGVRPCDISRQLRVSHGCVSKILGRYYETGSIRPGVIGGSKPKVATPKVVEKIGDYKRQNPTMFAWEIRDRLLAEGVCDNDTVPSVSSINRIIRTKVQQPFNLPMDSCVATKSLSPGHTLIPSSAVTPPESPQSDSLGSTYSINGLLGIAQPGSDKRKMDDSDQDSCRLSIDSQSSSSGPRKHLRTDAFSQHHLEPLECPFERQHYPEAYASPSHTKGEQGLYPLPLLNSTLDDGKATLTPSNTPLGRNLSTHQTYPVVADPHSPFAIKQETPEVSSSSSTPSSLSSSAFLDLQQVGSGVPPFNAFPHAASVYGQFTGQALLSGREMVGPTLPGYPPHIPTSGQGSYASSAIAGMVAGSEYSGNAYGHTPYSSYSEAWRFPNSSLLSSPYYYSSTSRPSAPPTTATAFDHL
E3 ubiquitin-protein ligase UHRF1, sequence (Q96T88 whole entry, the tested form may be a part): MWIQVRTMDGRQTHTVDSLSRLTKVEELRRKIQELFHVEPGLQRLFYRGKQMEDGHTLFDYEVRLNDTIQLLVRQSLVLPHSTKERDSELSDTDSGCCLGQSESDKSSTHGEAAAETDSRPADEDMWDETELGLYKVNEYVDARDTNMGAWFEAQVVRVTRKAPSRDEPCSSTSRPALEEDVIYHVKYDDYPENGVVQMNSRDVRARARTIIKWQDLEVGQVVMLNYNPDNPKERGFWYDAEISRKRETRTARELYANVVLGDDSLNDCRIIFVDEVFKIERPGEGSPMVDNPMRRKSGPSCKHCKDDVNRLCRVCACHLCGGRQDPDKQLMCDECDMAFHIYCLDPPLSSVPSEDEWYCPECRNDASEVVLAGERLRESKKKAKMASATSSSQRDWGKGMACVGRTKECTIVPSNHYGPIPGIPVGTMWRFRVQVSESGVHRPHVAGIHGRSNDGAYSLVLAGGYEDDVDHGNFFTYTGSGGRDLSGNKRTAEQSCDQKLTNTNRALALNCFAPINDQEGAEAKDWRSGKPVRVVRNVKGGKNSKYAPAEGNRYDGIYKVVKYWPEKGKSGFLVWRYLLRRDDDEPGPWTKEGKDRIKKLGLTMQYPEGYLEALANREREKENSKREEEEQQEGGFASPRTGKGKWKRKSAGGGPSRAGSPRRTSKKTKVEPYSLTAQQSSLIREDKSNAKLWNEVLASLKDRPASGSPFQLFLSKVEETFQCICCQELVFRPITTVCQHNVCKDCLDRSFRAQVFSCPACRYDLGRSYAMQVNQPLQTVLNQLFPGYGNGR
Metabotropic glutamate receptor 5, sequence (P31424 whole entry): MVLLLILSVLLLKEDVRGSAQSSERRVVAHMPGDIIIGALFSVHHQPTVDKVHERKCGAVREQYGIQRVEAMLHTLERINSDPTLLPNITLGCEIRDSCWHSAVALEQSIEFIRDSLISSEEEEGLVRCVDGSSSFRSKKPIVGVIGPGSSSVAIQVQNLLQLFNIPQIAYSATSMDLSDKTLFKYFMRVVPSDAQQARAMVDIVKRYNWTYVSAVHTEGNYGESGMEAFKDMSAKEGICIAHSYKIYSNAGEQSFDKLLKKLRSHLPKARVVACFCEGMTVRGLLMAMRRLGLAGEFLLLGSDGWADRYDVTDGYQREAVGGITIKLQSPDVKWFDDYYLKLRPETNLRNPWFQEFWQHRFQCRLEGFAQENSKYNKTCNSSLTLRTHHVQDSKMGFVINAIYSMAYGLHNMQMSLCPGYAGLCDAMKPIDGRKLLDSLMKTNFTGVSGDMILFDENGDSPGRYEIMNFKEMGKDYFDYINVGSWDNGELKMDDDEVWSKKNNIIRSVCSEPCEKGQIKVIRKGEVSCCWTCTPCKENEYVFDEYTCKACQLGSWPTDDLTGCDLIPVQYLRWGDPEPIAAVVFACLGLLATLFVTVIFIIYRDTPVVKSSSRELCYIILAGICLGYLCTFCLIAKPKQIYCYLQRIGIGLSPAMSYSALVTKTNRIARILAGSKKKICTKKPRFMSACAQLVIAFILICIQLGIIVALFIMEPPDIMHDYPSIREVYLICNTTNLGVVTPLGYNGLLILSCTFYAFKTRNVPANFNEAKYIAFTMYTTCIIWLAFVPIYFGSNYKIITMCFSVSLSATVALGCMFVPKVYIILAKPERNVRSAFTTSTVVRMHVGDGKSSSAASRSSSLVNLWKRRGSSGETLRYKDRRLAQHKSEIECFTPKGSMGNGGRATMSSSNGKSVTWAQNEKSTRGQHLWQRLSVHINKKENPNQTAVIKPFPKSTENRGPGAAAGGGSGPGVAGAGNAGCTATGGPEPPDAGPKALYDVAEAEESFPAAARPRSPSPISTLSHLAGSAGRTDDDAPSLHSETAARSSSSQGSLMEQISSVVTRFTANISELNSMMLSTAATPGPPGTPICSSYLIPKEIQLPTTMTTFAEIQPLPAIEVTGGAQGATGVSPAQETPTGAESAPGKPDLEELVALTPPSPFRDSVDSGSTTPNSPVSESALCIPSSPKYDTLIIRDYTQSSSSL
CAAX prenyl protease 2, sequence (Q03530 whole entry): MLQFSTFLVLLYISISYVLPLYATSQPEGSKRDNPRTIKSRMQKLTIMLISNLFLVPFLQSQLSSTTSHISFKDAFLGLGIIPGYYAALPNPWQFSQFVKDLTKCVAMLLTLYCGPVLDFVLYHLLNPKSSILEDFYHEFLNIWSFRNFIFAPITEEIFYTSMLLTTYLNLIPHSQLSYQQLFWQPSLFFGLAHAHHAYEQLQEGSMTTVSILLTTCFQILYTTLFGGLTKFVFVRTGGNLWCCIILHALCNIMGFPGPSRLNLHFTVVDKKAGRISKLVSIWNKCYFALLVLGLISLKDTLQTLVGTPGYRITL
Vasopressin V1b receptor, sequence (P47901 whole entry): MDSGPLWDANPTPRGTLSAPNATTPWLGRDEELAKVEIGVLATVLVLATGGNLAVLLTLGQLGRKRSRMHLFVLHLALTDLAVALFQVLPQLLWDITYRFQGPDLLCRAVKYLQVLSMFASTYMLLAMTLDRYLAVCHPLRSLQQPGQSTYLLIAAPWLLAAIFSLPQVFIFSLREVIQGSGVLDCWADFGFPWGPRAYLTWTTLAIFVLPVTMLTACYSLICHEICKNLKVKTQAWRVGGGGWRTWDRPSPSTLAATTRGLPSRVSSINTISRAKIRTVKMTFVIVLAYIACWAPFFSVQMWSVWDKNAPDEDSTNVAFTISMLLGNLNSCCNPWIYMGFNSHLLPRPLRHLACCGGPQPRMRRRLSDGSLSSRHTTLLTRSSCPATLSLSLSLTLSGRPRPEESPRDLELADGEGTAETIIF
Muscarinic acetylcholine receptor M5, sequence (P08912 whole entry): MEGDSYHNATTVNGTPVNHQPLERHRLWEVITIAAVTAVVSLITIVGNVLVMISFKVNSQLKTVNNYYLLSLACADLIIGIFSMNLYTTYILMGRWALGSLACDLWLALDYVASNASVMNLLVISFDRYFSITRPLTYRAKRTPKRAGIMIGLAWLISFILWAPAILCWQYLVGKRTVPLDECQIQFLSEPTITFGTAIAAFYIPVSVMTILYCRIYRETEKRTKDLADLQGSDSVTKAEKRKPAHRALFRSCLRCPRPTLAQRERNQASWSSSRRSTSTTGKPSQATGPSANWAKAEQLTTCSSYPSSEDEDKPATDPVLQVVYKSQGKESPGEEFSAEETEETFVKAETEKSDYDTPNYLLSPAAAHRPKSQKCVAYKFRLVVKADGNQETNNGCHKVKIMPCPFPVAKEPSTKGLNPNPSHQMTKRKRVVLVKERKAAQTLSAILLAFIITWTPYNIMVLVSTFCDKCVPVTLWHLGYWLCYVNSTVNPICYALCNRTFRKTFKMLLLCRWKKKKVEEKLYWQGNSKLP
Vasopressin V2 receptor, sequence (P30518 whole entry): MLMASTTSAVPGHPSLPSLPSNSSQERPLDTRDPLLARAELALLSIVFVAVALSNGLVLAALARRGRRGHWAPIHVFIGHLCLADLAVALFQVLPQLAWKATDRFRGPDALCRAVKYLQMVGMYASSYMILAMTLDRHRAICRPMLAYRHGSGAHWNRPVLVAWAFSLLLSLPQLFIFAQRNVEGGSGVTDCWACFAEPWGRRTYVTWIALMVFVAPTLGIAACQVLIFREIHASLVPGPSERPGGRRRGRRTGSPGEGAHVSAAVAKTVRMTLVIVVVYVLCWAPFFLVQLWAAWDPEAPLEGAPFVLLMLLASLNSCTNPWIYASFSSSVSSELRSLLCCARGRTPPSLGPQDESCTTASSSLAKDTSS
NAD-dependent protein deacylase sirtuin-5, mitochondrial, sequence (Q9NXA8 whole entry): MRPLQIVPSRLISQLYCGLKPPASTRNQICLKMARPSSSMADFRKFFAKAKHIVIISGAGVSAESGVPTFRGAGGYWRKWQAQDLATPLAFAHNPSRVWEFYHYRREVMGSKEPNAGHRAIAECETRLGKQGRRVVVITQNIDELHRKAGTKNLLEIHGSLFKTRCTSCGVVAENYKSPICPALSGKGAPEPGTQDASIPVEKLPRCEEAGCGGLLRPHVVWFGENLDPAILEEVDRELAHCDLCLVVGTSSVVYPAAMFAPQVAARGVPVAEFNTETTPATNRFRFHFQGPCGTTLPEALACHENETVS

EC50 [1]: > 67.4 µM (inactive)
Compound: N#Cc1c(N)nc(N)nc1Nc1ccc(Br)cc1

Compound: Cc1cc(C)c(C#N)c(N2CCN(c3ccccc3)CC2)n1
AC50 [2]: > 52 µM (inactive)

Compound: CC1CCCCN1C(=O)c1ccc(S(=O)(=O)N2CCCCC2C)cc1 (stereo unspecified)
CC50 [3]: > 40 µM (active)

EC50 (Transthyretin): > 167 µM (inactive)
Compound: Cc1cccc(N(C)c2ncnc3onc(-c4ccc(F)cc4)c23)c1C

IC50 [4]: > 0.541 µM (active)
Compound: COc1ccc2c(=O)c3c(=O)n(-c4ccccc4)c(-c4ccc(C)cc4)nc3oc2c1

Compound: CCCCCCSc1cc(-c2nc3cc(C)ccn3c2NCCCC)ccc1OC
AC50 [5]: 7.54 µM (active)
AC50 (CAAX prenyl protease 2): 19.8 µM (active)
AC50 [6]: 30.3 µM (active)
AC50 (cells [7]): 45.6 µM (active)
AC50 (cells [8]): 45.7 µM (active)

Compound: O=C(Nc1ccc(C(F)(F)F)cc1)N1C[C@@H]2N[C@H](C1)[C@@H]2c1ccc(-c2cccc(F)c2)cc1
AC50 (Paired box protein Pax-8): 22.4 µM (active)
AC50 [9]: 4.04 µM (active)
AC50 [10]: 3.45 µM (active)
AC50 [11]: 3.52 µM (active)

Compound: C[C@H](CO)N1C[C@H](C)[C@@H](CN(C)CC2CCCCC2)Oc2c(NC(=O)CCCCCC(=O)Nc3ccccc3N)cccc2C1=O
AC50 (Paired box protein Pax-8): 11.1 µM (active)
AC50 [12]: 46.8 µM (active)

EC50 [13]: 1.39 µM
Compound: CS(=O)(=O)N(CC(=O)NC1CCC1)c1cc(C(F)(F)F)ccc1Cl

EC50 [14]: 0.36 µM (active)
Compound: O=C1C(=O)N(CCOc2ccc(C(F)(F)F)cc2)c2ccc(OC(F)(F)F)cc21

Compound: CC(NC(=O)c1coc(=O)c(Br)c1)C1C2CCC3CC(C2)CC31 (stereo unspecified)
IC50 [15]: 8.3 µM (active)
IC50 [16]: 1.8 µM (active)

Compound: COc1ccc(N(CC2CC2)C(=O)N2CCN(c3cc(Cl)ccc3C)CC2)cc1
IC50 [17]: 0.0363 µM (active)
IC50 (Vasopressin V1b receptor): 16.6 µM (inactive)
IC50 (Vasopressin V2 receptor): 11.3 µM (inactive)
IC50 [18]: 0.25 µM (active)

AC50 [19]: > 30 µM (inactive)
Compound: C[C@H](CO)N1C[C@H](C)[C@@H](CN(C)C(=O)C2CCCCC2)OCCCC[C@H](C)Oc2ccc(NC(=O)Nc3ccc(F)cc3)cc2C1=O

Compound: CCN(CC)CCCNC1=C(Nc2ccccc2)C(=O)c2ccccc2C1=O
AC50 [20]: 65 µM (active)
AC50 [21]: 31 µM (active)

Compound: CCCNC(=O)N1[C@H](C#N)[C@H](c2ccc(-c3cccc(OC)c3)cc2)[C@H]1CO
AC50 [22]: 10.4 µM (active)
AC50 [23]: > 100 µM (inactive)
AC50 [10]: < 0.3 µM (active)
AC50 [24]: 0.0154 µM (active)
AC50 [25]: 0.0751 µM (active)
AC50 [26]: 0.0278 µM (active)

Compound: Nc1ccccc1NC(=O)c1ccccc1
EC50 (cells [27]): 13.8 µM (active)
EC50 (cells [28]): > 350 µM (not active)
AC50 [29]: 17.5 µM (active)

Compound: CN(C)CCOC(c1ccccc1)c1ccc(Br)cc1 (stereo unspecified) [BROMODIPHENHYDRAMINE]
IC50 [30]: > 10 µM (inactive)
IC50 [31]: > 20 µM (inactive)
IC50 [32]: 2.77 µM (active)
IC50 [33]: > 20 µM (inactive)
IC50 [34]: > 20 µM (inactive)
IC50 [35]: 3.1 µM (active)
IC50 (cells [36]): > 33.3 µM (inactive)
IC50 [37]: > 20 µM (inactive)
IC50 [38]: > 10 µM (inactive)
IC50 [39]: > 20 µM (inactive)

Compound: O=C(O)c1cc(/N=N/c2ccc(O)c(C(=O)O)c2)ccc1O [OLSALAZINE]
IC50 [40]: 9.54 µM (inactive)
IC50 [41]: > 40 µM (inactive)

Compound: Clc1ccc(C(Cn2ccnc2)OCc2ccsc2Cl)c(Cl)c1 (stereo unspecified) [TIOCONAZOLE]
IC50 [31]: > 20 µM (inactive)
IC50 [33]: 5.25 µM (inactive)
IC50 [34]: 4.07 µM (active)
IC50 [35]: 2.18 µM (active)
IC50 [37]: 5.23 µM (inactive)
IC50 [42]: > 20 µM (inactive)
IC50 [39]: > 20 µM (inactive)
IC50 [43]: 2.84 µM (active)

From ChEMBL document CHEMBL1201862, “PubChem BioAssay data set” (2004)
